Experimental findings from US10864238B2, “Composition containing Poria cocos peel extract for treating neurodegenerative disorders” (NeuroBo Pharmaceuticals, Inc., priority 2014, dated 2020) are described below.

Molecules are shown by their SMILES.

One experiment deals with human Tau [pS199]. The experiment can be described thus: Phosphorylated tau in neuronal cell line (ELISA). It is filed as cell-based. The note with it: 10 ug/ml; SH-SY5Y; FIG. 11. The method, then:
Phosphorylated tau levels were measured in order to confirm the inhibitory effect of Poria cocos peel extracts on tau hyper-phosphorylation. SH-SY5Y cells (1×10^6 cells/well) were seeded in 6-well culture plates and cultured in DMEM/F12 (Dulbecco's modified Eagle's medium) medium containing 10% FBS (fetal bovine serum) for 48 hours. After 5 days of differentiation using DMEM/F12 medium containing 10 μM retinoic acid and 3% FBS, after 6 hours of treatment with the Poria cocos peel extracts (10 or 100 ug/mL), Aβ42 was treated and cultured for a total of 48 hours. After cell lysis using RIPA buffer, the protein content was quantitated with BCA reagent purchased from Pierce. Phosphorylated tau was measured using human Tau [pS199] enzyme-linked immunosorbent assay (ELISA) KIT purchased from Invitrogen.
Background: ELISA stands for enzyme-linked immunosorbent assay.

A further experiment deals with beta-nerve growth factor. In words: NGF level measurement in nerve cell line (ELISA). It is filed as cell-based, human. The note with it: 10 ug/mL; SH-SY5Y; FIG. 12. The method, then:
NGF levels were measured in order to determine the mechanism of cognitive improvement of the Poria cocos peel extracts. SH-SY5Y cells (1×10^6 cells/well) were inoculated on 6-well culture plates and cultured in DMEM/F12 (Dulbecco's modified Eagle's medium) medium containing 10% fetal bovine serum for 48 hours. After 5 days of differentiation using DMEM/F12 medium containing 10 μM retinoic acid and 3% FBS, the cells were treated with Poria cocos peel extracts (10 or 100 ug/ml). Cells were lysed using RIPA buffer, and protein content was quantitated with BCA reagent purchased from Pierce. NGF levels were measured using a beta-nerve growth factor human enzyme-linked immunosorbent assay (ELISA) KIT purchased from Abcam.

As to `COc1cc2c(cc1OC)C(=O)C(CC1CCN(Cc3ccccc3)CC1)C2` (centres unmarked) [Donepezil], the “tau phosphorylation induced by Aβ42” value in the experiment with human Tau [pS199] was “did not show the inhibitory effect on tau phosphorylation”. The NGF production entry in the experiment on beta-nerve growth factor is recorded as “did not show NGF-related efficacy”.
